Values of other authors as cited in US20120231996A1, “Phalloidin derivatives and methods for their synthesis” (priority 2006, published 2012).
Numbered stars: 1 amine (or outer) side, 2 acyl side, 3 side chain; on linkers, the order of the positions; unused ones are H or OH. Bridge positions count the residues as written; N and C are the ends. Square brackets hold non-standard residues; d marks the D form. Peptide text beside a SMILES is read from it. Trp(2-yl) = O=C([C@H](Cc1c([*:3])[nH]c2ccccc12)N[*:1])[*:2]; Leu(4R-OH,5-OH) = C[C@](O)(CO)C[C@H](N)C(=O)O; cisHyp = O=C(O)[C@@H]1C[C@H](O)CN1

Assays:
actin = conditions: in solution
[1] = test system: filamentous actin (F-actin)

## C[C@@H]1NC(=O)[C@H](C[C@@](C)(O)CO)NC(=O)[C@@H]2Cc3c([nH]c4ccccc34)SC[C@H](NC(=O)[C@@H]([C@H](C)O)NC1=O)C(=O)N1C[C@@H](O)C[C@H]1C(=O)N[C@@H](C)C(=O)N2 [Phalloidin] (cyclo(A[dT]C[cisHyp]A[Trp(2-yl)][Leu(4R-OH,5-OH)]); thioether 3-6)
actin
  Effect on critical concentration of actin polymerization: lowers the critical concentration of actin polymerization
[1]
  Affinity of binding to filamentous actin: binds with high affinity
